According to ChEMBL document CHEMBL2202954, “The effect of PLC-γ2 inhibitors on the growth of human tumour cells” (2012):

Columns and labels:
Type in all cases: functional
OVCAR-5 = assay: Cytotoxicity against human OVCAR5 cells assessed as cellular growth at 10 uM by SRB assay
LOX IMVI = assay: Cytotoxicity against human LOXIMVI cells assessed as cellular growth at 10 uM by SRB assay
NCI-H322M = assay: Cytotoxicity against human NCI-H322M cells assessed as cellular growth at 10 uM by SRB assay
MDA-MB-468 = assay: Cytotoxicity against human MDA-MB-468 cells assessed as cellular growth at 10 uM by SRB assay
OVCAR-4 = assay: Cytotoxicity against human OVCAR4 cells assessed as cellular growth at 10 uM by SRB assay
HL-60(TB) = assay: Cytotoxicity against human HL-60(TB) cells assessed as cellular growth at 10 uM by SRB assay
SK-MEL-28 = assay: Cytotoxicity against human SK-MEL-28 cells assessed as cellular growth at 10 uM by SRB assay
SF-268 = assay: Cytotoxicity against human SF268 cells assessed as cellular growth at 10 uM by SRB assay
OVCAR-3 = assay: Cytotoxicity against human OVCAR3 cells assessed as cellular growth at 10 uM by SRB assay
SK-OV-3 = assay: Cytotoxicity against human SKOV3 cells assessed as cellular growth at 10 uM by SRB assay
IGROV-1 = assay: Cytotoxicity against human IGROV1 cells assessed as cellular growth at 10 uM by SRB assay
EKVX = assay: Cytotoxicity against human EKVX cells assessed as cellular growth at 10 uM by SRB assay
[1] = Cytotoxicity against human NCI-ADR-RES cells assessed as cellular growth at 10 uM by SRB assay
M14 = assay: Cytotoxicity against human M14 cells assessed as cellular growth at 10 uM by SRB assay
HCT-15 = assay: Cytotoxicity against human HCT15 cells assessed as cellular growth at 10 uM by SRB assay
UO-31 = assay: Cytotoxicity against human UO31 cells assessed as cellular growth at 10 uM by SRB assay
HOP-62 = assay: Cytotoxicity against human HOP62 cells assessed as cellular growth at 10 uM by SRB assay
HOP-92 = assay: Cytotoxicity against human HOP92 cells assessed as cellular growth at 10 uM by SRB assay
RXF 393 = assay: Cytotoxicity against human RXF393 cells assessed as cellular growth at 10 uM by SRB assay
SR = assay: Cytotoxicity against human SR cells assessed as cellular growth at 10 uM by SRB assay

O=C(NCc1cccnc1)c1sc2cc([N+](=O)[O-])ccc2c1Cl
Activity (OVCAR-5): 105.26%
Activity (LOX IMVI): 102.15%
Activity (NCI-H322M): 101.48%
Activity (MDA-MB-468): 106.53%
Activity (OVCAR-4): 102.6%
Activity (HL-60(TB)): 110.91%
Activity (SK-MEL-28): 110.01%
Activity (SF-268): 99.64%
Activity (OVCAR-3): 100.57%
Activity (SK-OV-3): 91.06%
Activity (IGROV-1): 106.67%
Activity (EKVX): 90.5%
Activity [1]: 95.58%
Activity (M14): 108.24%
Activity (HCT-15): 97.65%
Activity (UO-31): 76.73%
Activity (HOP-62): 97.3%
Activity (HOP-92): 98.76%
Activity (RXF 393): 111.54%

CC1(C)CCc2cc(-c3ccn(S(=O)(=O)c4cccc(C(F)(F)F)c4)n3)ccc2O1
Activity (OVCAR-5): 108.57%
Activity (LOX IMVI): 92.84%
Activity (NCI-H322M): 106.64%
Activity (MDA-MB-468): 67.07%
Activity (HL-60(TB)): 72.67%
Activity (SK-MEL-28): 105.56%
Activity (SF-268): 102.56%
Activity (SR): 66.68%
Activity (OVCAR-3): 101.58%
Activity (SK-OV-3): 96.16%
Activity (IGROV-1): 109.7%
Activity (EKVX): 70.44%
Activity [1]: 88.98%
Activity (M14): 97.31%
Activity (HCT-15): 89.34%
Activity (UO-31): 97.36%
Activity (HOP-62): 102.63%
Activity (HOP-92): 38.91%
Activity (RXF 393): 97.2%

Clc1ccccc1Nc1nnc(-c2ccncc2)s1
Activity (OVCAR-5): 106.94%
Activity (LOX IMVI): 110.09%
Activity (NCI-H322M): 93.72%
Activity (MDA-MB-468): 110.42%
Activity (OVCAR-4): 94.51%
Activity (HL-60(TB)): 79.12%
Activity (SK-MEL-28): 100.34%
Activity (SF-268): 104.7%
Activity (OVCAR-3): 109.8%
Activity (SK-OV-3): 104.92%
Activity (IGROV-1): 100.52%
Activity (EKVX): 91.68%
Activity [1]: 101.59%
Activity (M14): 103.83%
Activity (HCT-15): 112.25%
Activity (UO-31): 90.67%
Activity (HOP-62): 117.96%
Activity (HOP-92): 93.87%
Activity (RXF 393): 107.3%

CC1(C)CCc2cc(-c3ccn(S(=O)(=O)c4ccccc4Cl)n3)ccc2O1
Activity (OVCAR-5): 92.37%
Activity (LOX IMVI): 83.91%
Activity (NCI-H322M): 126.42%
Activity (MDA-MB-468): 63.67%
Activity (HL-60(TB)): 81.19%
Activity (SK-MEL-28): 99.8%
Activity (SF-268): 96.38%
Activity (SR): 72.9%
Activity (OVCAR-3): 93.06%
Activity (SK-OV-3): 91.9%
Activity (IGROV-1): 113.61%
Activity (EKVX): 67.03%
Activity [1]: 78.37%
Activity (M14): 78.84%
Activity (HCT-15): 46.19%
Activity (UO-31): 90.06%
Activity (HOP-62): 96.86%
Activity (HOP-92): 49.12%
Activity (RXF 393): 93.11%

COc1cc(/C=c2/sc3nc4ccccc4n3c2=O)cc(I)c1O
Activity (OVCAR-5): 102.12%
Activity (LOX IMVI): 93.01%
Activity (NCI-H322M): 109.21%
Activity (MDA-MB-468): 71.12%
Activity (OVCAR-4): 96.8%
Activity (HL-60(TB)): 81.81%
Activity (SK-MEL-28): 111.82%
Activity (SF-268): 99.48%
Activity (OVCAR-3): 97.63%
Activity (SK-OV-3): 96.7%
Activity (IGROV-1): 110.46%
Activity (EKVX): 92.52%
Activity [1]: 92.89%
Activity (M14): 107.28%
Activity (HCT-15): 91.48%
Activity (UO-31): 70.56%
Activity (HOP-62): 101.47%
Activity (HOP-92): 93.81%
Activity (RXF 393): 116.35%

Cc1ccc(CNC(=O)c2[nH]c3ccccc3c2Cl)cc1
Activity (OVCAR-5): 108.38%
Activity (LOX IMVI): 97.73%
Activity (NCI-H322M): 111.04%
Activity (MDA-MB-468): 106.86%
Activity (OVCAR-4): 101.65%
Activity (HL-60(TB)): 113.42%
Activity (SK-MEL-28): 113.18%
Activity (SF-268): 86.83%
Activity (OVCAR-3): 95.55%
Activity (SK-OV-3): 92.6%
Activity (IGROV-1): 99.38%
Activity (EKVX): 91.13%
Activity [1]: 92.34%
Activity (M14): 115.09%
Activity (HCT-15): 106.3%
Activity (UO-31): 110.2%
Activity (HOP-62): 90.94%
Activity (HOP-92): 81.7%
Activity (RXF 393): 109.98%

O=C1N=C(c2ccccc2)S/C1=C\c1ccc2c(c1)OCO2
Activity (OVCAR-5): 92.58%
Activity (LOX IMVI): 102.92%
Activity (NCI-H322M): 108.21%
Activity (MDA-MB-468): 98.71%
Activity (OVCAR-4): 100.96%
Activity (HL-60(TB)): 111.12%
Activity (SK-MEL-28): 106.02%
Activity (SF-268): 95.75%
Activity (OVCAR-3): 95.8%
Activity (SK-OV-3): 98.47%
Activity (IGROV-1): 101.91%
Activity (EKVX): 98.04%
Activity [1]: 107.06%
Activity (M14): 111.64%
Activity (HCT-15): 101.73%
Activity (UO-31): 86.92%
Activity (HOP-62): 94.43%
Activity (HOP-92): 71.22%
Activity (RXF 393): 115.74%

Cc1ccc(NC(=O)c2sc3nc4c(cc3c2N)C(=O)CCC4)c(Br)c1
Activity (OVCAR-5): 105.13%
Activity (LOX IMVI): 102.77%
Activity (NCI-H322M): 103.11%
Activity (MDA-MB-468): 106.56%
Activity (OVCAR-4): 105.66%
Activity (HL-60(TB)): 111.67%
Activity (SK-MEL-28): 107.72%
Activity (SF-268): 100.61%
Activity (OVCAR-3): 101.82%
Activity (SK-OV-3): 92.59%
Activity (IGROV-1): 112.76%
Activity (EKVX): 89.55%
Activity [1]: 102.67%
Activity (M14): 105.12%
Activity (HCT-15): 103.46%
Activity (UO-31): 94.06%
Activity (HOP-62): 95.12%
Activity (HOP-92): 107.03%
Activity (RXF 393): 118.46%

O=C(NCCc1ccccc1)c1[nH]c2ccccc2c1Cl
Activity (OVCAR-5): 104.54%
Activity (LOX IMVI): 89.47%
Activity (NCI-H322M): 98.86%
Activity (MDA-MB-468): 64.9%
Activity (OVCAR-4): 82.6%
Activity (HL-60(TB)): 90.02%
Activity (SK-MEL-28): 106.79%
Activity (SF-268): 92.71%
Activity (OVCAR-3): 72.81%
Activity (SK-OV-3): 91.3%
Activity (IGROV-1): 82.65%
Activity (EKVX): 57.12%
Activity [1]: 87.28%
Activity (M14): 106.45%
Activity (HCT-15): 86.01%
Activity (UO-31): 57.64%
Activity (HOP-62): 86.43%
Activity (HOP-92): 72.64%
Activity (RXF 393): 103.44%

O=C(Nc1ccc2oc(=O)ccc2c1)c1ccc(-c2ccc(Br)cc2)o1
Activity (OVCAR-5): 121.34%
Activity (LOX IMVI): 105.3%
Activity (NCI-H322M): 154.44%
Activity (MDA-MB-468): 122.28%
Activity (HL-60(TB)): 101.52%
Activity (SK-MEL-28): 119.2%
Activity (SF-268): 106.9%
Activity (SR): 102.2%
Activity (OVCAR-3): 125.42%
Activity (SK-OV-3): 112.03%
Activity (IGROV-1): 126.49%
Activity (EKVX): 113.5%
Activity [1]: 101.15%
Activity (M14): 114.52%
Activity (HCT-15): 108.33%
Activity (UO-31): 127.52%
Activity (HOP-62): 106.69%
Activity (HOP-92): 97.44%
Activity (RXF 393): 112.24%

Cc1ccc(NC(=O)c2sc3nc(-c4cccs4)ccc3c2N)cc1C
Activity (OVCAR-5): 115.16%
Activity (LOX IMVI): 101.98%
Activity (NCI-H322M): 123.82%
Activity (MDA-MB-468): 44.79%
Activity (HL-60(TB)): 82.68%
Activity (SK-MEL-28): 113.95%
Activity (SF-268): 107.88%
Activity (SR): 82.09%
Activity (OVCAR-3): 98.63%
Activity (SK-OV-3): 112.05%
Activity (IGROV-1): 117.67%
Activity (EKVX): 103.49%
Activity [1]: 102.93%
Activity (M14): 114.64%
Activity (HCT-15): 109.09%
Activity (UO-31): 126.96%
Activity (HOP-62): 103.01%
Activity (HOP-92): 106.34%
Activity (RXF 393): 123.31%
